Source: patent publication US9771369B2, “Compounds and methods for kinase modulation, and indications therefor” (Plexxikon Inc., priority 2014, dated 2017)

Molecular target: c-Kit kinase (Homo sapiens (Human), UniProt P10721)
Assay: c-Kit biochemical assay (AlphaScreen kinase activity)
In short: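 AlphaScreen: c-Kit phosphorylates biotin-(E4Y)3 (100 nM) at 10 μM ATP, pH 7.2 HEPES buffer with Mg/Mn, 5% DMSO, 1 h room temperature; streptavidin donor and PY30 acceptor beads detect product. Second format: 100 μM ATP, 30 nM biotin-(E4Y)10, pH 7.5. IC50 from 8-point 1:3 dilution curves.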

c-Kit kinase, sequence (P10721 26-976): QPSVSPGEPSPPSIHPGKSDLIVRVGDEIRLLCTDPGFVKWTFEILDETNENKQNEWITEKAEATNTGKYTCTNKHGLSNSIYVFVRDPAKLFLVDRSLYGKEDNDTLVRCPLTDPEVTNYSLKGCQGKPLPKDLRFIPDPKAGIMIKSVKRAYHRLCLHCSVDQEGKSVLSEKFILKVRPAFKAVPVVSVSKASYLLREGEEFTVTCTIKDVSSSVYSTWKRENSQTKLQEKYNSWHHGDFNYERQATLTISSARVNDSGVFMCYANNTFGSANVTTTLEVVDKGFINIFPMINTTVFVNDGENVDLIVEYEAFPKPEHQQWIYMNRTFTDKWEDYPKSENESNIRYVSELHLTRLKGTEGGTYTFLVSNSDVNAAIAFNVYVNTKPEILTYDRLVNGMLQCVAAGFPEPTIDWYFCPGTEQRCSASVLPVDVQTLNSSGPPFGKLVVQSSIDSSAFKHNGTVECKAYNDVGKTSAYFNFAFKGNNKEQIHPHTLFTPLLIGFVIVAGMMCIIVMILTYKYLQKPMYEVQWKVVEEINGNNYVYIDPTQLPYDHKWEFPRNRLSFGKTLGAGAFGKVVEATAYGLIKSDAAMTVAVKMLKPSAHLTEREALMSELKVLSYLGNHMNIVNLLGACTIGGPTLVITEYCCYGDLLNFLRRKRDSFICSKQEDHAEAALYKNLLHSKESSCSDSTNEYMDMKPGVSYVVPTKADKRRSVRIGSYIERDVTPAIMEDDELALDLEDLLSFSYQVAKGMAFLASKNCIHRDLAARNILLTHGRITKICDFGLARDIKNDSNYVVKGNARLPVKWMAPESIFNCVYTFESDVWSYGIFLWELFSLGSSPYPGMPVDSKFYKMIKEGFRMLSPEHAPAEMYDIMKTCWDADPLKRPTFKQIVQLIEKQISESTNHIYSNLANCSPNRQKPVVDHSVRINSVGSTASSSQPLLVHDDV

Q: Which IC50 does the source give for `COc1cc(-c2cc3c(N4CCC(c5nc(C)c(-c6cccc(OC(F)(F)F)c6)[nH]5)CC4)ncnc3[nH]2)ccn1` [P-3014, 6-(2-methoxy-4-pyridyl)-4-[4-[4-methyl-5-[3-(trifluoromethoxy)phenyl]-1H-imidazol-2-yl]-1-piperidyl]-7H-pyrrolo[2,3-d]pyrimidine] here?
A: 1 to 10 µM

Q: `COc1ccc(-c2[nH]c(C3CCN(c4ncnc5[nH]c(-c6ccc(C#N)cc6)cc45)CC3)nc2C)cc1` [P-3015, 4-[4-[4-[5-(4-methoxyphenyl)-4-methyl-1H-imidazol-2-yl]-1-piperidyl]-7H-pyrrolo[2,3-d]pyrimidin-6-yl]benzonitrile] was tested. Which IC50 did it give?
A: 0.0001 to 1 µM

Q: Which IC50 does the source give for `Cc1nc(C2CCN(c3ncnc4[nH]c(-c5ccc(C#N)cc5)cc34)CC2)[nH]c1-c1cccc(F)c1` [P-3016, 4-[4-[4-[5-(3-fluorophenyl)-4-methyl-1H-imidazol-2-yl]-1-piperidyl]-7H-pyrrolo[2,3-d]pyrimidin-6-yl]benzonitrile] here?
A: 1 to 10 µM

Q: `COc1ccc(-c2[nH]c(C3CCN(c4ncnc5[nH]c(-c6ccnc(OC)c6)cc45)CC3)nc2C)cc1` [P-3017, 4-[4-[5-(4-methoxyphenyl)-4-methyl-1H-imidazol-2-yl]-1-piperidyl]-6-(2-methoxy-4-pyridyl)-7H-pyrrolo[2,3-d]pyrimidine] was tested. Which IC50 did it give?
A: 0.0001 to 1 µM

Q: Which IC50 does the source give for `COc1ccc(-c2[nH]c(C3CCN(c4ncnc5[nH]c(-c6ccc(C#N)cc6)cc45)CC3)nc2C)cc1F` [P-3018, 4-[4-[4-[5-(3-fluoro-4-methoxy-phenyl)-4-methyl-1H-imidazol-2-yl]-1-piperidyl]-7H-pyrrolo[2,3-d]pyrimidin-6-yl]benzonitrile] here?
A: 1 to 10 µM

Q: For `CCOc1ccc(-c2[nH]c(C3(C)CCN(c4ncnc5[nH]c(-c6ccc(OC)nc6)cc45)CC3)nc2C)cc1` [P-3171, 4-[4-[5-(4-ethoxyphenyl)-4-methyl-1H-imidazol-2-yl]-4-methyl-1-piperidyl]-6-(6-methoxy-3-pyridyl)-7H-pyrrolo[2,3-d]pyrimidine], which IC50 is on record?
A: 0.0001 to 1 µM

Q: With `COc1ccc(-c2[nH]c(C3(C)CCN(c4ncnc5[nH]c(-c6ccc(C#N)cc6)cc45)CC3)nc2C)cn1` [P-3172, 4-[4-[4-[5-(6-methoxy-3-pyridyl)-4-methyl-1H-imidazol-2-yl]-4-methyl-1-piperidyl]-7H-pyrrolo[2,3-d]pyrimidin-6-yl]benzonitrile] as the molecule, how does the IC50 read?
A: 0.0001 to 1 µM

Q: Which IC50 does the source give for `COc1ncc(-c2[nH]c(C3CCN(c4ncnc5[nH]c(-c6ccc(C#N)cc6)cc45)CC3)nc2C)cc1F` [P-3173, 4-[4-[4-[5-(5-fluoro-6-methoxy-3-pyridyl)-4-methyl-1H-imidazol-2-yl]-1-piperidyl]-7H-pyrrolo[2,3-d]pyrimidin-6-yl]benzonitrile] here?
A: 0.0001 to 1 µM

Q: How did the IC50 turn out when `Cc1nc(C2(C)CCN(c3ncnc4[nH]c(-c5cnn(C(F)F)c5)cc34)CC2)[nH]c1-c1ccc(Cl)cc1` [P-3175, 4-[4-[5-(4-chlorophenyl)-4-methyl-1H-imidazol-2-yl]-4-methyl-1-piperidyl]-6-[1-(difluoromethyl)pyrazol-4-yl]-7H-pyrrolo[2,3-d]pyrimidine] was run?
A: 0.0001 to 1 µM

Q: With `COc1ccc(-c2cc3c(N4CCC(C)(c5nc(C)c(-c6ccc(Cl)cc6)[nH]5)CC4)ncnc3[nH]2)cn1` [P-3176, 4-[4-[5-(4-chlorophenyl)-4-methyl-1H-imidazol-2-yl]-4-methyl-1-piperidyl]-6-(6-methoxy-3-pyridyl)-7H-pyrrolo[2,3-d]pyrimidine] as the molecule, how does the IC50 read?
A: 0.0001 to 1 µM

Q: With `Cc1nc(C2(C)CCN(c3ncnc4[nH]c(-c5ccc(C#N)cc5)cc34)CC2)[nH]c1-c1ccc(C(F)(F)F)cc1` [P-3177, 4-[4-[4-methyl-4-[4-methyl-5-[4-(trifluoromethyl)phenyl]-1H-imidazol-2-yl]-1-piperidyl]-7H-pyrrolo[2,3-d]pyrimidin-6-yl]benzonitrile] as the molecule, how does the IC50 read?
A: 0.0001 to 1 µM

Q: With `COc1ccc(-c2cc3c(N4CCC(C)(c5nc(C)c(-c6ccc(C(F)(F)F)cc6)[nH]5)CC4)ncnc3[nH]2)cn1` [P-3178, 6-(6-methoxy-3-pyridyl)-4-[4-methyl-4-[4-methyl-5-[4-(trifluoromethyl)phenyl]-1H-imidazol-2-yl]-1-piperidyl]-7H-pyrrolo[2,3-d]pyrimidine] as the molecule, how does the IC50 read?
A: 0.0001 to 1 µM

Q: `Cc1nc(C2(C)CCN(c3ncnc4[nH]c(-c5cnn(C(F)F)c5)cc34)CC2)[nH]c1-c1ccc(C(F)(F)F)cc1` [P-3179, 6-[1-(difluoromethyl)pyrazol-4-yl]-4-[4-methyl-4-[4-methyl-5-[4-(trifluoromethyl)phenyl]-1H-imidazol-2-yl]-1-piperidyl]-7H-pyrrolo[2,3-d]pyrimidine] was tested. Which IC50 did it give?
A: 0.0001 to 1 µM

Q: For `Cc1nc(C2(C)CCN(c3ncnc4[nH]c(-c5ccc(C#N)cc5)cc34)CC2)[nH]c1-c1ccc(Cl)cc1` [P-3180, 4-[4-[4-[5-(4-chlorophenyl)-4-methyl-1H-imidazol-2-yl]-4-methyl-1-piperidyl]-7H-pyrrolo[2,3-d]pyrimidin-6-yl]benzonitrile], which IC50 is on record?
A: 0.0001 to 1 µM

Q: How did the IC50 turn out when `COc1ncc(-c2[nH]c(C3(C)CCN(c4ncnc5[nH]c(-c6ccc(C#N)cc6)cc45)CC3)nc2C)cc1F` [P-3181, 4-[4-[4-[5-(5-fluoro-6-methoxy-3-pyridyl)-4-methyl-1H-imidazol-2-yl]-4-methyl-1-piperidyl]-7H-pyrrolo[2,3-d]pyrimidin-6-yl]benzonitrile] was run?
A: 0.0001 to 1 µM

Q: `COc1ccc(-c2[nH]c(C3(C)CCN(c4ncnc5[nH]c(-c6cnn(C(F)F)c6)cc45)CC3)nc2C)cn1` [P-3182, 6-[1-(difluoromethyl)pyrazol-4-yl]-4-[4-[5-(6-methoxy-3-pyridyl)-4-methyl-1H-imidazol-2-yl]-4-methyl-1-piperidyl]-7H-pyrrolo[2,3-d]pyrimidine] was tested. Which IC50 did it give?
A: 0.0001 to 1 µM

Q: `COc1ccc(-c2[nH]c(C3(C)CCN(c4ncnc5[nH]c(C)cc45)CC3)nc2C)cc1F` [P-3183, 4-[4-[5-(3-fluoro-4-methoxy-phenyl)-4-methyl-1H-imidazol-2-yl]-4-methyl-1-piperidyl]-6-methyl-7H-pyrrolo[2,3-d]pyrimidine] was tested. Which IC50 did it give?
A: 0.0001 to 1 µM

Q: `Cc1cc2c(N3CCC(C)(c4nc(C)c(-c5ccc(C(F)F)cc5)[nH]4)CC3)ncnc2[nH]1` [P-3184, 4-[4-[5-[4-(difluoromethyl)phenyl]-4-methyl-1H-imidazol-2-yl]-4-methyl-1-piperidyl]-6-methyl-7H-pyrrolo[2,3-d]pyrimidine] was tested. Which IC50 did it give?
A: 0.0001 to 1 µM

Q: For `COc1ncc(-c2nc(C3(C)CCN(c4ncnc5[nH]c(C)cc45)CC3)[nH]c2C)cc1F` [P-3185, 4-[4-[4-(5-fluoro-6-methoxy-3-pyridyl)-5-methyl-1H-imidazol-2-yl]-4-methyl-1-piperidyl]-6-methyl-7H-pyrrolo[2,3-d]pyrimidine], which IC50 is on record?
A: 1 to 10 µM

Q: Which IC50 does the source give for `COc1ccc(-c2nc(C3(C)CCN(c4ncnc5[nH]c(C)cc45)CC3)[nH]c2C)cn1` [P-3186, 4-[4-[4-(6-methoxy-3-pyridyl)-5-methyl-1H-imidazol-2-yl]-4-methyl-1-piperidyl]-6-methyl-7H-pyrrolo[2,3-d]pyrimidine] here?
A: 1 to 10 µM

Q: For `COc1ccc(-c2[nH]c(C3(C)CCN(c4ncnc5[nH]c(-c6cnn(C(F)F)c6)cc45)CC3)nc2C)cc1F` [P-3187, 6-[1-(difluoromethyl)pyrazol-4-yl]-4-[4-[5-(3-fluoro-4-methoxy-phenyl)-4-methyl-1H-imidazol-2-yl]-4-methyl-1-piperidyl]-7H-pyrrolo[2,3-d]pyrimidine], which IC50 is on record?
A: 0.0001 to 1 µM

Q: `COc1ccc(-c2cc3c(N4CCC(C)(c5nc(C)c(-c6ccc(OC)c(F)c6)[nH]5)CC4)ncnc3[nH]2)cn1` [P-3188, 4-[4-[5-(3-fluoro-4-methoxy-phenyl)-4-methyl-1H-imidazol-2-yl]-4-methyl-1-piperidyl]-6-(6-methoxy-3-pyridyl)-7H-pyrrolo[2,3-d]pyrimidine] was tested. Which IC50 did it give?
A: 0.0001 to 1 µM

Q: How did the IC50 turn out when `Cc1nc(C2(C)CCN(c3ncnc4[nH]c(-c5cnn(C(F)F)c5)cc34)CC2)[nH]c1-c1ccc(C(F)F)cc1` [P-3189, 4-[4-[5-[4-(difluoromethyl)phenyl]-4-methyl-1H-imidazol-2-yl]-4-methyl-1-piperidyl]-6-[1-(difluoromethyl)pyrazol-4-yl]-7H-pyrrolo[2,3-d]pyrimidine] was run?
A: 0.0001 to 1 µM

Q: How did the IC50 turn out when `COc1ccc(-c2cc3c(N4CCC(C)(c5nc(C)c(-c6ccc(C(F)F)cc6)[nH]5)CC4)ncnc3[nH]2)cn1` [P-3190, 4-[4-[5-[4-(difluoromethyl)phenyl]-4-methyl-1H-imidazol-2-yl]-4-methyl-1-piperidyl]-6-(6-methoxy-3-pyridyl)-7H-pyrrolo[2,3-d]pyrimidine] was run?
A: 0.0001 to 1 µM

Q: For `Cc1cc2c(N3CCC(C)(c4nc(C)c(-c5cccc(OC(F)F)c5)[nH]4)CC3)ncnc2[nH]1` [P-3191, 4-[4-[5-[3-(difluoromethoxy)phenyl]-4-methyl-1H-imidazol-2-yl]-4-methyl-1-piperidyl]-6-methyl-7H-pyrrolo[2,3-d]pyrimidine], which IC50 is on record?
A: 1 to 10 µM

Q: With `Cc1nc(C2(C)CCN(c3ncnc4[nH]c(-c5cnn(C(F)F)c5)cc34)CC2)[nH]c1-c1cccc(OC(F)F)c1` [P-3192, 4-[4-[5-[3-(difluoromethoxy)phenyl]-4-methyl-1H-imidazol-2-yl]-4-methyl-1-piperidyl]-6-[1-(difluoromethyl)pyrazol-4-yl]-7H-pyrrolo[2,3-d]pyrimidine] as the molecule, how does the IC50 read?
A: 0.0001 to 1 µM

Q: For `COc1ccc(-c2cc3c(N4CCC(C)(c5nc(C)c(-c6cccc(OC(F)F)c6)[nH]5)CC4)ncnc3[nH]2)cn1` [P-3193, 4-[4-[5-[3-(difluoromethoxy)phenyl]-4-methyl-1H-imidazol-2-yl]-4-methyl-1-piperidyl]-6-(6-methoxy-3-pyridyl)-7H-pyrrolo[2,3-d]pyrimidine], which IC50 is on record?
A: 0.0001 to 1 µM

Q: How did the IC50 turn out when `Cc1nc(C2(C)CCN(c3ncnc4[nH]c(-c5ccc(C#N)cc5)cc34)CC2)[nH]c1-c1cccc(OC(F)F)c1` [P-3194, 4-[4-[4-[5-[3-(difluoromethoxy)phenyl]-4-methyl-1H-imidazol-2-yl]-4-methyl-1-piperidyl]-7H-pyrrolo[2,3-d]pyrimidin-6-yl]benzonitrile] was run?
A: 1 to 10 µM

Q: `Cc1nc(C2(C)CCN(c3ncnc4[nH]c(-c5ccc(C#N)cc5)cc34)CC2)[nH]c1-c1ccc(OC(F)F)cc1` [P-3195, 4-[4-[4-[5-[4-(difluoromethoxy)phenyl]-4-methyl-1H-imidazol-2-yl]-4-methyl-1-piperidyl]-7H-pyrrolo[2,3-d]pyrimidin-6-yl]benzonitrile] was tested. Which IC50 did it give?
A: 0.0001 to 1 µM
